# Test results taken from patent US8084430B2, “ENT-kaurene diterpene compound and its derivatives, their preparation and their use” (Zhengzhou University, priority 2006, dated 2011).
# Entries after “also recorded” stand apart in the source; their conditions may differ.
# Assays:
# [1] = system: Human esophageal carcinoma Ec109 cells; assay: MTT activity against esophageal carcinoma Ec109 cells; assay type: cell-based
# Method: Human esophageal carcinoma Ec109 cells were taken as target cells (Henan Institute of Medical Sciences), which were cultured in RPMI1640 medium (GIBCO) with 10% fetal bovine serum (TBD) at 37° C., in 5% CO2. The cells in logarithmic growth phase were inoculated in a 96-well plate, each well containing 6×10^3 cells. After 24 hours culture, the Jiyuan oridonin A (the compound obtained in example 1), derivative 1 and derivative 2 in different concentrations were added. After continuous 48 hours culture, the medical solution was removed carefully by absorption, followed by washing with RPMI 1640 medium without fetal bovine serum 3 times. 200 μL of medium with 0.2 mg/mL MTT were added in each well and incubated at 37° C. for 4 hours. The supernatant was removed and 200 μL of DMSO was added. After 10 min of shaking, the colorimetric method was used to determine the OD value of the control group and sample groups by an enzyme-labeling instrument with a detection wavelength of 570 nm, and a reference wavelength of 450 nm. The inhibition rate against cells of drugs in different concentrations was calculated and hemi-inhibitory concentration IC50 (μg/mL) was calculated based on cell inhibition curve.
# α-glucosidase = assay: Inhibitory activity against glycosidase (α-glucosidase); assay type: biochemical, baker's yeast
# Method: (§1) After keeping at 37° C. for 40 min, the reaction substrate, p-nitrophenyl glucoside (2.5 mM, 20 μl), was added in each well, and kept at 37° C. for 5 min. The reaction was terminated by addition of buffer, 0.1 M Na2CO3 100 μl, and the OD value was determined at 405 nm by colorimetric method. 0.067M phosphate buffer containing 10% DMSO was used instead of the compounds in negative control group. Inhibition rate=(1−OD value of experimental group/OD value of negative control group)×100%, the IC50 value was calculated by drawing.
# β-glucosidase = assay: Inhibitory activity against glycosidase (β-glucosidase); assay type: biochemical, baker's yeast
# Method: as §1
structure (smiles),measurement,setting,value
C=C1C(=O)C23C([C@@H](O)CC1[C@H]2O)[C@]12CCCC(C)(C)C1C[C@H]3OC2O (stereo partly drawn) [Jiyuan oridonin A],cytotoxic activity against Ec109 cell (conclusion in words),[1]; Ec109 cell,higher cytotoxic activity; also recorded: highest activity
same,IC50,"[1]; Homo sapiens, ECa-109, Ec109 cells, 48 hours culture, MTT",4.52 µg/mL
same,Inhibitory activity against α-glucosidase,α-glucosidase; compound concentration of 1 mM,26.3
same,inhibitory activity against α-glucosidase in vitro (conclusion in words),α-glucosidase; in vitro,certain inhibitory activity
same,Inhibitory activity against β-glucosidase,β-glucosidase; compound concentration of 1 mM,25.0
same,inhibitory activity against β-glucosidase in vitro (conclusion in words),β-glucosidase; in vitro,certain inhibitory activity
